# Tests used:
# liver of C57BL/6 mice = assay: Histopathological scoring of liver sections; type: in vivo, mouse; parameters: Fibrosis (periportal), Mean Grade / Vacuolation (centrilobular), Mean Grade / Necrosis; Inflammatory cell foci, Mean Grade / Bile duct proliferation, Mean Grade: scale not given here; conditions: for Bile duct proliferation, Mean Grade / Fibrosis (periportal), Mean Grade / Necrosis; Inflammatory cell foci, Mean Grade / Vacuolation (centrilobular), Mean Grade: mean ±SD; for Dose at which hepatocyte vacuolization (fatty change) was first observed / Doses at which minimal to slight hepatocyte necrosis and inflammatory cell infiltration were present: every 4 d for 28 d
# Protocol: Postnatal day 25 (PND25) male C57BL/6 mice weighing within 10% of each other were obtained from Charles River Laboratories (Kingston, NY) and housed in Innovive Innocages (San Diego, CA) containing ALPHA-dri bedding (Shepherd Specialty Papers, Chicago, IL) in a 23 °C environment with 30–40% humidity and a 12-hour light/dark cycle (7am–7 pm). Mice were provided Aquavive water (Innovive) and Harlan Teklad 22/5 Rodent Diet 8940 (Madison, WI) ad libitum, and were acclimated for […] prior to treatment. Beginning on PND28, animals (n = 8; co-housed 4 per cage) were orally gavaged with sesame oil vehicle (Sigma-Aldrich, St. Louis, MO), 0.01, 0.03, 0.1, 0.3, 1, 3, 10, or 30 μg/kg TCDD (AccuStandard, New Haven, CT) every 4d for a total of 28d (7 exposures; Supplementary Fig. S3). The doses used compensate for the relatively short study duration compared to lifelong cumulative human exposure from diverse AhR ligands, the bioaccumulative nature of halogenated AhR ligands, and differences in TCDD’s metabolism and half-life (humans: 1–11 years, [61], mice: 8–12d[62]). TCDD doses between 0.01 and 30 µg/kg result in mouse hepatic tissue levels that span human background serum concentrations reported in the United States, Germany, Spain, and the United Kingdom as well as serum levels in Viktor Yushchenko 4–39 months following intentional poisoning. For the histopathological comparison, female C57BL/6 mice were orally gavaged with sesame oil vehicle or 0.01–30 µg/kg TCDD every 4d for 28d, as previously described. All animal handling procedures were performed with the approval of the Michigan State University (MSU) Institutional Animal Care and Use Committee, in accordance with the relevant ethical guidelines and regulations.
# All processing was performed by the MSU Investigative Histopathology Laboratory (https://humanpathology.natsci.msu.edu/). Formalin-fixed hepatic tissues were vacuum infiltrated with paraffin using a Tissue-Tek VIP 2000 tissue processor (Sakura) and embedded with the Thermo Fisher HistoCentre III Embedding Center (Thermo Fisher, Waltham, Massachusetts). Paraffin blocks were sectioned at 4–5 µm with a Reichert Jung 2030 rotary microtome (Reichert, Depew, New York) and dried for 2–24 h at 56 °C to ensure adherence to the slides. For lipid staining, liver sections frozen in O.C.T. compound were sectioned at 6 µm, fixed in 10% NBF for 5 min, rinsed with water, and immersed in 100% propylene glycol for 5 min. Liver sections were stained with hematoxylin and eosin (H&E) for general histological assessment. Lipids were stained using Oil Red O (ORO) as previously described. Macrophages were labeled using a monoclonal anti-mouse F4/80 antibody (1:100 dilution; AbD Serotec, Raleigh, NC). Collagen was stained with 0.1% Picro-Sirius Red (PSR) dye, with Weigert’s Hematoxylin nuclear dye. Histological assessment of hepatic tissue from female C57BL/6 mice was performed as previously described, [32].
# [1] = test system: gallbladder of male C57BL/6 mice; assay: Gallbladder volume (micro-caliper, ellipsoid); type: in vivo, mouse; conditions: 30 µg/kg TCDD every 4 d for 28 d
# Protocol: At 25d after the initial dose (PND53), fecal pellets from the previous 24 hours (h) were collected from each cage (4 mice per cage) and stored at −80 °C. At 28d after the initial exposure (PND56), mice (fasted for 6 h) were weighed and blood was collected from the submandibular vein prior to cervical dislocation. The gallbladder length, width, and depth were measured using a micro-caliper. Its volume was calculated assuming an ellipsoid shape: volume (µL) = length (mm) × width (mm) × depth (mm) × π/6[63], [64]. The distal ileum (10 cm section extending from the caecum toward the jejunum) was removed, flushed with Ca^2+/Mg^2+-free phosphate buffered saline (PBS; Sigma), and opened longitudinally. The epithelial lining was scraped into a vial containing TRIzol (Invitrogen, Carlsbad, CA), frozen in liquid nitrogen, and stored at −80 °C. Liver, gonadal white adipose tissue (gWAT), and brown adipose tissue were removed, weighed, frozen in liquid nitrogen, and stored at −80 °C. Serum alkaline phosphatase (ALP) activity was determined using a commercial kit (Pointe Scientific, Canton, MI).
# [2] = parameters: method as in PMID 19660807, PMID 8145287; conditions: humans; cited from earlier work
# [3] = female, 0.3 µg/kg TCDD every 4 d for 28 d
# [4] = female, 1 µg/kg TCDD every 4 d for 28 d
# [5] = female, 3 µg/kg TCDD every 4 d for 28 d
# [6] = female, 10 µg/kg TCDD every 4 d for 28 d
# [7] = female, 30 µg/kg TCDD every 4 d for 28 d
# [8] = male, 0.3 µg/kg TCDD every 4 d for 28 d
# [9] = male, 1 µg/kg TCDD every 4 d for 28 d
# [10] = male, 3 µg/kg TCDD every 4 d for 28 d
# [11] = male, 10 µg/kg TCDD every 4 d for 28 d
# [12] = male, 30 µg/kg TCDD every 4 d for 28 d
smiles,measurement,setting,value
"Clc1cc2c(cc1Cl)Oc1cc(Cl)c(Cl)cc1O2 [TCDD, 2,3,7,8-tetrachlorodibenzo-p-dioxin]",Inflammation surrounding the bile ducts (pericholangitis),"liver of C57BL/6 mice; 30 µg/kg TCDD every 4 d for 28 d, male vs female",exclusive to males
same,"Bile duct proliferation, Incidence",liver of C57BL/6 mice; [3],0/8
same,"Fibrosis (periportal), Incidence",liver of C57BL/6 mice; [3],0/8
same,"Necrosis; Inflammatory cell foci, Incidence",liver of C57BL/6 mice; [3],0/8
same,"Vacuolation (centrilobular), Incidence",liver of C57BL/6 mice; [3],0/8
same,"Bile duct proliferation, Incidence",liver of C57BL/6 mice; [4],0/6
same,"Fibrosis (periportal), Incidence",liver of C57BL/6 mice; [4],0/6
same,"Necrosis; Inflammatory cell foci, Incidence",liver of C57BL/6 mice; [4],0/6
same,"Vacuolation (centrilobular), Incidence",liver of C57BL/6 mice; [4],0/6
same,"Bile duct proliferation, Incidence",liver of C57BL/6 mice; [5],0/6
same,"Fibrosis (periportal), Incidence",liver of C57BL/6 mice; [5],0/6
same,"Necrosis; Inflammatory cell foci, Incidence",liver of C57BL/6 mice; [5],0/6
same,"Vacuolation (centrilobular), Incidence",liver of C57BL/6 mice; [5],0/6
same,"Bile duct proliferation, Incidence",liver of C57BL/6 mice; [6],0/4
same,"Fibrosis (periportal), Incidence",liver of C57BL/6 mice; [6],0/4
same,"Necrosis; Inflammatory cell foci, Incidence",liver of C57BL/6 mice; [6],0/4
same,"Vacuolation (centrilobular), Incidence",liver of C57BL/6 mice; [6],1/4
same,"Bile duct proliferation, Incidence",liver of C57BL/6 mice; [7],1/4
same,"Fibrosis (periportal), Incidence",liver of C57BL/6 mice; [7],1/4
same,"Necrosis; Inflammatory cell foci, Incidence",liver of C57BL/6 mice; [7],1/4
same,"Vacuolation (centrilobular), Incidence",liver of C57BL/6 mice; [7],4/4
same,"Bile duct proliferation, Mean Grade",liver of C57BL/6 mice; [7],0.3 ± 0.5
same,"Fibrosis (periportal), Mean Grade",liver of C57BL/6 mice; [7],0.3 ± 0.5
same,"Necrosis; Inflammatory cell foci, Mean Grade",liver of C57BL/6 mice; [7],0.3 ± 0.5
same,"Vacuolation (centrilobular), Mean Grade",liver of C57BL/6 mice; [7],2.0 ± 1.2
same,Dose at which hepatocyte vacuolization (fatty change) was first observed,liver of C57BL/6 mice; females,10 µg/kg
same,Doses at which minimal to slight hepatocyte necrosis and inflammatory cell infiltration were present,liver of C57BL/6 mice; females,30 µg/kg
same,"Bile duct proliferation, Incidence",liver of C57BL/6 mice; [8],0/8
same,"Fibrosis (periportal), Incidence",liver of C57BL/6 mice; [8],0/8
same,"Necrosis; Inflammatory cell foci, Incidence",liver of C57BL/6 mice; [8],0/8
same,"Vacuolation (centrilobular), Incidence",liver of C57BL/6 mice; [8],1/8
same,"Vacuolation (centrilobular), Mean Grade",liver of C57BL/6 mice; [8],0.1 ± 0.4
same,"Bile duct proliferation, Incidence",liver of C57BL/6 mice; [9],0/8
same,"Fibrosis (periportal), Incidence",liver of C57BL/6 mice; [9],0/8
same,"Necrosis; Inflammatory cell foci, Incidence",liver of C57BL/6 mice; [9],0/8
same,"Vacuolation (centrilobular), Incidence",liver of C57BL/6 mice; [9],5/8
same,"Vacuolation (centrilobular), Mean Grade",liver of C57BL/6 mice; [9],0.9 ± 0.8
same,"Bile duct proliferation, Incidence",liver of C57BL/6 mice; [10],0/8
same,"Fibrosis (periportal), Incidence",liver of C57BL/6 mice; [10],0/8
same,"Necrosis; Inflammatory cell foci, Incidence",liver of C57BL/6 mice; [10],2/8
same,"Vacuolation (centrilobular), Incidence",liver of C57BL/6 mice; [10],6/8
same,"Necrosis; Inflammatory cell foci, Mean Grade",liver of C57BL/6 mice; [10],0.3 ± 0.5
same,"Vacuolation (centrilobular), Mean Grade",liver of C57BL/6 mice; [10],1.0 ± 0.8
same,"Bile duct proliferation, Incidence",liver of C57BL/6 mice; [11],0/8
same,"Fibrosis (periportal), Incidence",liver of C57BL/6 mice; [11],0/8
same,"Necrosis; Inflammatory cell foci, Incidence",liver of C57BL/6 mice; [11],6/8
same,"Vacuolation (centrilobular), Incidence",liver of C57BL/6 mice; [11],8/8
same,"Necrosis; Inflammatory cell foci, Mean Grade",liver of C57BL/6 mice; [11],0.8 ± 0.5
same,"Vacuolation (centrilobular), Mean Grade",liver of C57BL/6 mice; [11],3.0 ± 0.5
same,"Bile duct proliferation, Incidence",liver of C57BL/6 mice; [12],5/8
same,"Fibrosis (periportal), Incidence",liver of C57BL/6 mice; [12],5/8
same,"Necrosis; Inflammatory cell foci, Incidence",liver of C57BL/6 mice; [12],8/8
same,"Vacuolation (centrilobular), Incidence",liver of C57BL/6 mice; [12],8/8
same,"Bile duct proliferation, Mean Grade",liver of C57BL/6 mice; [12],0.9 ± 0.8
same,"Fibrosis (periportal), Mean Grade",liver of C57BL/6 mice; [12],0.6 ± 0.5
same,"Necrosis; Inflammatory cell foci, Mean Grade",liver of C57BL/6 mice; [12],1.3 ± 0.5
same,"Vacuolation (centrilobular), Mean Grade",liver of C57BL/6 mice; [12],4.0 ± 0.0
same,Dose at which hepatocyte vacuolization (fatty change) was first observed,liver of C57BL/6 mice; males,0.3 µg/kg
same,Doses at which minimal to slight hepatocyte necrosis and inflammatory cell infiltration were present,liver of C57BL/6 mice; males,≥ 3 µg/kg
same,"Gallbladder volume, fold increase compared to controls",[1],2.5 fold
same,Half-life,[2],1–11 years

# Reference: publication PMC5517430, “2,3,7,8-Tetrachlorodibenzo-p-dioxin (TCDD)-elicited effects on bile acid homeostasis: Alterations in biosynthesis, enterohepatic circulation, and microbial metabolism” (Scientific Reports, 2017)
